From patent US9650339B2, “Inhibitors of histone demethylases” (Gilead Sciences, Inc., priority 2013, dated 2017)

Experiments:
[1] = system: MCF7 cells; assay: Cell proliferation assay MCF7; type: cell-based; settings: MCF7 human breast cancer cells; 120 hours; ATPlite 1 Step
In short: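 After 120 h of compound exposure (duplicates, DMSO at most 0.5%) in DMEM GlutaMAX with 10% FBS, ATPlite 1 Step luminescence measured cellular ATP. Compound was added 24 h after seeding, at a density chosen for ~90% confluence at the end.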

[2] = target: T1, KDM3A (JMJD1A) (Homo sapiens, UniProt Q9Y4C1); assay: Histone lysine demethylase AlphaLISA assay, KDM3A; type: biochemical; settings: read-out: KDM3 A HDME Inhibition IC50
T1 construct: 2-end; purchased BPS Bioscience, US; host or cells: Bac (baculovirus system)
T1 sequence (Q9Y4C1 2-1321 limits assumed): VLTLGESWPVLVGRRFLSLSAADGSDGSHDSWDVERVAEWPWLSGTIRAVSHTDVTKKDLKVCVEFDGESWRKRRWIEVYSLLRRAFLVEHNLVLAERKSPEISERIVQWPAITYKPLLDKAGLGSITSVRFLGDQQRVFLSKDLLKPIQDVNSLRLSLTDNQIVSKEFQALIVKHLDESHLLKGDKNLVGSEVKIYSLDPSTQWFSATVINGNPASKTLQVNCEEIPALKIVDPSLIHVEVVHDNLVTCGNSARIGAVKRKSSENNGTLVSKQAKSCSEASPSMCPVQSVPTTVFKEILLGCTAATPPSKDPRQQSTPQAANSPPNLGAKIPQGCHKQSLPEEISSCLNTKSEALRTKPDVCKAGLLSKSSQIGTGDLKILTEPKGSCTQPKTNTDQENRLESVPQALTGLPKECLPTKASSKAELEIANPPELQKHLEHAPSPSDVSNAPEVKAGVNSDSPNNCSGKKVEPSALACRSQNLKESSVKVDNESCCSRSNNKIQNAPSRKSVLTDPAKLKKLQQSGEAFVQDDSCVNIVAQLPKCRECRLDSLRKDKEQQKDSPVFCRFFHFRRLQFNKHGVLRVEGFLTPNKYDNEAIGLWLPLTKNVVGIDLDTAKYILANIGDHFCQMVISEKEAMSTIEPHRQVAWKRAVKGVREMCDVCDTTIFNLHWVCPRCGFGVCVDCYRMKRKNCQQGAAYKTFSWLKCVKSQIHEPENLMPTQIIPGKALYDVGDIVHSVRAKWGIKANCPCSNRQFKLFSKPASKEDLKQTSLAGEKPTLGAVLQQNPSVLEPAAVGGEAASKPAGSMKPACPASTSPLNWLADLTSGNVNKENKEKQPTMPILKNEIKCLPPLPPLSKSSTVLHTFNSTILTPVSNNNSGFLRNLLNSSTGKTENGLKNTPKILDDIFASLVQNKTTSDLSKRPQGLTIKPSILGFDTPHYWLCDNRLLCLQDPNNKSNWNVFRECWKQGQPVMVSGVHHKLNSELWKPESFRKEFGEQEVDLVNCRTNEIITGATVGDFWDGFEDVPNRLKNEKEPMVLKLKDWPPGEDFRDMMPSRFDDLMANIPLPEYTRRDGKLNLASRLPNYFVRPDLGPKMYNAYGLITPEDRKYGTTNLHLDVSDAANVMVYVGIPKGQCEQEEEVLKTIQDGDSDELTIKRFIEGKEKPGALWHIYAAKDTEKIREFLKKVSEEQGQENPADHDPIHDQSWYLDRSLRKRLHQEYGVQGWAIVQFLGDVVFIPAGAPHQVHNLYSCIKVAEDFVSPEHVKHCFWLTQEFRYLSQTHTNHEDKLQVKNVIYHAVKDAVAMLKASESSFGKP
Protocol: Assays are performed analogously to the protocol described by PerkinElmer (Roy et al. PerkinElmer Technical Note: AlphaLISA #12, April 2011)
Enzymes are dissolved in enzyme buffer and incubated for 10 min before being added to 3% DMSO solutions of compounds in enzyme buffer. Incubated for another 10 minutes, before substrate solution is added and the reaction mixture is incubated at room temperature. 10 μL acceptor beads, suspended in Epigenetic Buffer (Perkin Elmer AL008) from stock, are added and the suspension is incubated in the dark at room temperature, before a suspension of streptavidin donor beads (Perkin Elmer 6760002) in Epigenetic Buffer is added. After incubation at room temperature in the dark the plates are read. […]
BK9M2: Biotin-ARTKQTAR(KMe2)STGGKAPRKQ-NH2 (AnaSpec 64359) […]
Substrate Solution: Substrate, 25 μM L-Asc, and 10 μM α-KG in Buffer A.

[3] = target: T2, KDM4C (JMJD2C) (Homo sapiens, UniProt Q9H3R0); assay: Histone lysine demethylase AlphaLISA assay, KDM4C; type: biochemical; settings: read-out: KDM4C HDME Inhibition IC50
T2 sequence (Q9H3R0 1-349): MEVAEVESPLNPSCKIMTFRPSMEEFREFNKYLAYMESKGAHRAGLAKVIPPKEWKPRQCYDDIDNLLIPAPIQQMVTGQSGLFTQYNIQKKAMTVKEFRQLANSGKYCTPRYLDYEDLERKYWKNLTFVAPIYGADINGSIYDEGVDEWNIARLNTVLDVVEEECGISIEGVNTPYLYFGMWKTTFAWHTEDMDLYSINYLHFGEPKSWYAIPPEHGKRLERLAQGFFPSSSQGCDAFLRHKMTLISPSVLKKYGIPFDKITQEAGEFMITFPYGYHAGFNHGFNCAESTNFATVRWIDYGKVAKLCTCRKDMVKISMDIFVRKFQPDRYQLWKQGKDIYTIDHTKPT
In short: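 Enzyme 10 min pre-incubation; + compound (3% DMSO soln) 10 min; + biotin-H3 methyl-Lys peptide, 25 μM L-Asc, 10 μM α-KG, RT. Read: AlphaLISA acceptor beads, then streptavidin donor beads, RT, dark.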

Row | EC50 [1] | IC50 [2] | IC50 [3] | SMILES
1 | – | > 2500 nM | > 2500 nM | C#CCN(C)C(=O)CNCc1cc(/C=N/C2CC2)ccn1 [Compound 56, 2-[({4-[N-cyclopropyl-carboximidoyl]-pyridin-2-yl}methyl)amino]-N-methyl-N-(prop-2-yn-1-yl)acetamide]
2 | – | > 2500 nM | > 2500 nM | CN1CCN(C(=O)CNCc2cc(C=O)ccn2)CC1 [Compound 103, 2-({[2-(4-methylpiperazin-1-yl)-2-oxoethyl]-amino}methyl)-pyridine-4-carbaldehyde]
3 | – | > 2500 nM | 250 to 2500 nM | CCN1CCCC1CNC(=O)CNCc1cc(C=O)ccn1 (centres unmarked) [Compound 104, N-[(1-ethylpyrrolidin-2-yl)methyl]-2-{[(4-formylpyridin-2-yl)methyl]amino}-acetamide]
4 | – | > 2500 nM | > 2500 nM | CCN(CC)C(=O)CNCc1cc(C=O)ccn1 [Compound 105, N,N-diethyl-2-{[(4-formylpyridin-2-yl)methyl]amino}-acetamide]
5 | – | > 2500 nM | 250 to 2500 nM | O=Cc1ccnc(CNCC(=O)N2CCC(Cc3ccccc3)CC2)c1 [Compound 106, 2-({[2-(4-benzylpiperidin-1-yl)-2-oxoethyl]-amino}methyl)-pyridine-4-carbaldehyde]
6 | – | > 2500 nM | > 2500 nM | CN(C)CCCCNCc1cc(C=O)ccn1 [Compound 108, 2-({[4-(dimethylamino)-butyl]amino}methyl)-pyridine-4-carbaldehyde]
7 | – | > 2500 nM | > 2500 nM | CN(C)CCNCc1cc(C=O)ccn1 [Compound 110, 2-({[2-(dimethylamino)-ethyl]amino}methyl)-pyridine-4-carbaldehyde]
8 | – | > 2500 nM | 250 to 2500 nM | CCN(CC)CCCCNC(=O)CNCc1cc(C=O)ccn1 [Compound 112, N-[4-(diethylamino)-butyl]-2-{[(4-formylpyridin-2-yl)methyl]amino}-acetamide]
9 | – | > 2500 nM | 250 to 2500 nM | CN(C)CCCCCNCc1cc(C=O)ccn1 [Compound 114, 2-({[5-(dimethylamino)-pentyl]amino}methyl)-pyridine-4-carbaldehyde]

Continued, molecule first:

Row | SMILES | EC50 [1] | IC50 [2] | IC50 [3]
10 | CCN(CC)CCCCNCc1cc(CNC(=O)C(F)(F)F)ccn1 [Compound 1, N-{[2-({[4-(diethylamino)butyl]-amino}methyl)pyridin-4-yl]methyl}-2,2,2-trifluoroacetamide] | < 250 nM | > 2500 nM | > 2500 nM
11 | CCN(CCN(C)C)C(=O)CNCc1cc(CN)ccn1 [Compound 4, 2-({[4-(aminomethyl)pyridin-2-yl]methyl}amino)-N-[2-(dimethylamino)ethyl]-N-ethylacetamide] | < 250 nM | > 2500 nM | 250 to 2500 nM
12 | CCN(CC)CCCCNCc1cc(CN)ccn1 [Compound 5, [2-({[4-(diethylamino)butyl]-amino}methyl)pyridin-4-yl]methanamine] | < 250 nM | > 2500 nM | > 2500 nM
13 | CCN(CC)CCCCN(Cc1cc(CNC(=O)C(F)(F)F)ccn1)C(=O)C(F)(F)F [Compound 6, N-[4-(diethylamino)butyl]-- 2,2,2-trifluoro-N-({4-[(trifluoroacetamido)-methyl]pyridin-2-yl}methyl)acetamide] | < 250 nM | > 2500 nM | > 2500 nM
14 | NCc1ccnc(CNCCCCN2CCC2)c1 [Compound 7, [2-({[4-(azetidin-1-yl)butyl]amino}methyl)-pyridin-4-yl]-methanamine] | 250 to 2500 nM | > 2500 nM | > 2500 nM
15 | CN(C)CCCCNCc1cc(/C=N\C2CC2)ccn1 [Compound 45, N-{[2-({[4-(dimethylamino)butyl]-amino}methyl)-pyridin-4-yl]methylidene}-cyclopropanamine] | – | > 2500 nM | > 2500 nM
16 | CN(C)CCCCCNCc1cc(/C=N/C2CC2)ccn1 [Compound 47, N-{[2-({[5-(dimethylamino)-pentyl]amino}-methyl)pyridin-4-yl]methylidene}-cyclopropanamine] | – | > 2500 nM | > 2500 nM
17 | CCN(CC)CCCCNC(=O)CNCc1cc(/C=N/C2CC2)ccn1 [Compound 48, 2-[({4-[N-cyclopropyl-carboximidoyl]pyridin-2-yl}methyl)amino]-N-[4-(diethylamino)-butyl]acetamide] | – | > 2500 nM | 250 to 2500 nM
18 | O=C(CNCc1cc(/C=N/C2CC2)ccn1)N1CCC[C@@H]1CN1CCCC1 [Compound 49, 2-[({4-[N-cyclopropyl-carboximidoyl]pyridin-2-yl}methyl)amino]-1-[(2R)-2-(pyrrolidin-1-ylmethyl)pyrrolidin-1-yl]ethan-1-one] | – | > 2500 nM | 250 to 2500 nM
19 | CCN(CCC#N)C(=O)CNCc1cc(/C=N/C2CC2)ccn1 [Compound 50, N-(2-cyanoethyl)-2-[({4-[N-cyclopropyl-carboximidoyl]-pyridin-2-yl}methyl)amino]-N-ethylacetamide] | – | > 2500 nM | 250 to 2500 nM
20 | CCN1CCCC1CNC(=O)CNCc1cc(/C=N/C2CC2)ccn1 (centres unmarked) [Compound 51, 2-[({4-[N-cyclopropyl-carboximidoyl]-pyridin-2-yl}methyl)-amino]-N-[(1-ethylpyrrolidin-2-yl)methyl]acetamide] | – | > 2500 nM | > 2500 nM
21 | CN(CCCn1cccn1)C(=O)CNCc1cc(/C=N/C2CC2)ccn1 [Compound 52, 2-[({4-[N-cyclopropyl-carboximidoyl]-pyridin-2-yl}methyl)amino]-N-methyl-N-[3-(1H-pyrazol-1-yl)propyl]acetamide] | – | > 2500 nM | 250 to 2500 nM
22 | O=C(CNCc1cc(/C=N/C2CC2)ccn1)NC1CCN(Cc2ccccc2)C1 (centres unmarked) [Compound 53, N-(1-benzylpyrrolidin-3-yl)-2-[({4-[N-cyclopropyl-carboximidoyl]pyridin-2-yl}methyl)amino]-acetamide] | – | 250 to 2500 nM | 250 to 2500 nM
23 | CN1CCN(C(=O)CNCc2cc(/C=N/C3CC3)ccn2)CC1 [Compound 54, 2-[({4-[N-cyclopropyl-carboximidoyl]-pyridin-2-yl}methyl)amino]-1-(4-methylpiperazin-1-yl)ethan-1-one] | – | > 2500 nM | 250 to 2500 nM
24 | O=C(CNCc1cc(/C=N/C2CC2)ccn1)N1CCC(Cc2ccccc2)CC1 [Compound 55, 1-(4-benzylpiperidin-1-yl)-2-[({4-[N-cyclopropyl-carboximidoyl]-pyridin-2-yl}methyl)amino]-ethan-1-one] | – | > 2500 nM | 250 to 2500 nM
